Values of other authors, collected in patent US20090180950A1, “Polychromatic, diversely-sized particles for angiography” (The Trustees of Columbia University in the City of New York, priority 2006, published 2009).

System: plasma protein
Conditions: fluorescein

bound to plasma protein (fraction bound): 70-80%
unbound (free) fraction (fraction not bound to plasma protein): 20-30%
Compound: O=C1OC2(c3ccc(O)cc3Oc3cc(O)ccc32)c2ccccc21 [fluorescein, Sodium fluorescein]
